Assay [1] has as its system fasted normal non-diabetic rats. The assay is described as follows: Blood glucose depression profile after subcutaneous injection. The format is in vivo, rat (Male Sprague-Dawley). As to conditions: non-diabetic SD rats. As for the experimental part:
(§1) Blood glucose values were measured using commercially available test strips (Precision Xtra, Abbott Laboratories, Abbott Park, Ill.).
as §1, §1
Blood glucose values were measured using commercially available test strips (Precision Xtra, Abbott Laboratories, Abbott Park, Ill.). In addition, blood from each timepoint was centrifuged at 4 C to collect the serum.

Assay [2] can be described thus: Gel formation with glycogen (OD490 turbidity). As to conditions: 10 mg/ml rCon A, 10 or 1 mg/ml glycogen, pH 7 BES buffer, 10 minutes room temperature. As for the experimental part:
rCon A synthesised and purified according to Examples 42-44 were tested for their ability to form gels with glycogen. Alpha methyl mannose present in the samples was initially removed as follows. Samples were added to BioSpin 30 columns (Bio-Rad, Hercules, Calif.) that had been previously equilibrated with deionized water. The BioSpin columns were centrifuged for 4 minutes at 1000×g, and the resulting eluent contained rCon A samples that had been substantially desalted and alpha methyl mannose removed. Samples were combined and A280 measurements were obtained. Typically, the A280 measurements correlated with the A280 measurements obtained before removal of alpha methyl mannose.
The following assay was then used to measure gel formation with glycogen. Unmodified Oyster glycogen Type II (Sigma Aldrich, St. Louis, Mo.) was dissolved at 10 mg/ml in pH 7, 200 mM BES buffer (Sigma Aldrich, St. Louis, Mo.). […] The plate was allowed to develop at room temperature for 10 minutes, after which time the turbidity of each plate well was assayed using a commercially available microplate reader (SpectraMAX, Molecular Devices, Mountain View, Calif.) at a wavelength of 490 nm (OD490). […]

[3] abbreviates: subcutaneous, 0.25 ml of 20 U of equivalent insulin/ml.

As for “insulin-dextran: comparative insulin-dextran (MW 70K) conjugate made by CNBr coupling, 10% (w/w) insulin”, in assay [1] (setting [3]), the “time serum glucose levels remain depressed post injection” value was “at least five” and the “time to reach the glucose nadir (Tnadir)” value was “about 3 hours”.

“insulin-glycogen: comparative conjugate of insulin with oyster glycogen (Type II) by CNBr coupling, Example 32”: the “glucose lowering compared to the insulin-dextran conjugates” value in assay [1] (2.5 equivalent U of insulin/kg subcutaneous) was “lower glucose levels much more rapidly and to a greater extent”. Turning to “SCI-1: recombinant Con A construct, amino acid sequence SEQ ID NO: 1 (wild-type Con A)”, the “gel formation with glycogen” value in assay [2] is given as “formed gels with glycogen that were comparable to gels formed by native (plant-derived) Con A controls”.

For the origin of these results see patent publication US9068013B2, “Recombinant lectins, binding-site modified lectins and uses thereof” (SMART CELLS, INC., priority 2010, dated 2015).
